Experimental data published in patent publication US20140107109A1, “AMINO-DIHYDROTHIAZINE AND AMINO-DIOXIDO DIHYDROTHIAZINE COMPOUNDS AS BETA-SECRETASE ANTAGONISTS AND METHODS OF USE” (Amgen Inc., priority 2012, published 2014).
pIC50: −log10 of the molar value. Read-outs that look alike come from different tables or passages of the source.

What was measured:
[1] = target: Beta Secretase enzyme (BACE1) (Homo sapiens, UniProt P56817); test: In vitro enzymatic BACE FRET assay; assay type: biochemical; conditions: read-out: BACE1 FRET assay IC50
Beta Secretase enzyme (BACE1), sequence (P56817 46-501): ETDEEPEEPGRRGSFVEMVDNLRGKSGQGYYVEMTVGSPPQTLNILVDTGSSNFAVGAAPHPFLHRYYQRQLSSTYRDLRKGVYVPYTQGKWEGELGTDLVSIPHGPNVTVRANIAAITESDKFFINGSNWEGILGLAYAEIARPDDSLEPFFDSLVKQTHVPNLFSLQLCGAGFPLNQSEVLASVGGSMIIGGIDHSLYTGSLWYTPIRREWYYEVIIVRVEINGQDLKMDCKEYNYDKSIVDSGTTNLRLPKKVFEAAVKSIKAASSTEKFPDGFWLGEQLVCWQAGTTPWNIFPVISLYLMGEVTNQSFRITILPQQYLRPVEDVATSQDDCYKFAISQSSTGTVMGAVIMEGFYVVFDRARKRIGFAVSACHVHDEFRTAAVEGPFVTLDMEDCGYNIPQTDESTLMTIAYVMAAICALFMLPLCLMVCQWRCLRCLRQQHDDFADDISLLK
Procedure, shortened: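 BACE1 cleavage of a 50 nM fluorophore/quencher peptide FRET substrate ran for one hour in 0.05 M acetate pH 4.2, 10% DMSO, 100 uM genapol. Tris buffer raised pH to neutrality to stop the reaction before fluorescence was read (excitation 488 nm, […]).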

Cathepsin D (Cat D) = target: T1, Cathepsin D (Cat D) (Homo sapiens, UniProt P07339); test: In vitro enzymatic Cathepsin D (Cat D) FRET assay; assay type: biochemical; conditions: read-out: CatD IC50
T1 construct: Recombinant Cat D was expressed in CHO cells; made in house; host or cells: CHO cells
T1 sequence (P07339 65-412, species assumed): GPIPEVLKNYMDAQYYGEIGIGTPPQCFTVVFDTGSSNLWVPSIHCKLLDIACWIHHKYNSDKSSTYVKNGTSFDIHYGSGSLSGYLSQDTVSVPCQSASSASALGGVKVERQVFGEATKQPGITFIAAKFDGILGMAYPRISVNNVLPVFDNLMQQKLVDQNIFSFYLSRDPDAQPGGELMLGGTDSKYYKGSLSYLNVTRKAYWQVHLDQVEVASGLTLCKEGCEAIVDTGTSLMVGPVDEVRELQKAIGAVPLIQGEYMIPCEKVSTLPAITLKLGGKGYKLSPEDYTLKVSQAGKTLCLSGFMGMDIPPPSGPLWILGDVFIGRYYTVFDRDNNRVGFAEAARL
Procedure, shortened: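 Recombinant Cat D expressed in CHO cells, used at 9 nM and pre-incubated one hour with serially diluted inhibitor in DMSO. Peptide substrate carries a fluorophore and quencher flanking the cleavage site; reaction stopped with Tris buffer raising pH to neutrality, then fluorescence read.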

[2] = system: Aβ40 in conditioned medium of cells stably expressing Amyloid Precursor Protein (APP); test: In vitro BACE cell-based assay (HEK cell assay), Aβ40 sandwich ELISA
Procedure, shortened: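 APP-stably expressing cells (40K/well, grown 24 h in DMEM/10% FBS) were treated 24 h with compounds in 10-point dose response starting at 100 μM or 10 μM, 0.1% DMSO final. Secreted Aβ40 was measured by sandwich ELISA (pAb40 capture, biotinylated 6E10 detection, europium time-resolved fluorescence); IC50 from percent inhibition.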

[3] = Homo sapiens, HEK293, average IC50, cell assay
[4] = Homo sapiens, HEK293, average IC50, HEK cells

## CC1(C)C(N)=N[C@](C)(c2cc(Nc3nccc4nc(OCC(F)F)cnc34)ccc2F)CS1(=O)=O [Example 444, N-(3-((3R)-5-amino-3,6,6-trimethyl-1,1-dioxido-3,6-dihydro-2H-1,4-thiazin-3-yl)-4-fluorophenyl)-2-(2,2-difluoroethoxy)pyrido[3,4-b]pyrazin-5-amine]
[1]; average IC50, enzyme assay
  pIC50: 8.34
Cathepsin D (Cat D)
  pIC50: 3.62
[2]; [3]
  pIC50: 8.08

## CC#CCOc1cnc2c(Nc3ccc(F)c([C@]4(C)CS(=O)(=O)C(C)(C)C(N)=N4)c3)nccc2n1 [Example 445, N-(3-((3R)-5-amino-3,6,6-trimethyl-1,1-dioxido-3,6-dihydro-2H-1,4-thiazin-3-yl)-4-fluorophenyl)-2-(2-butyn-1-yloxy)pyrido[3,4-b]pyrazin-5-amine]
[1]; average IC50, enzyme assay
  pIC50: 9.49
Cathepsin D (Cat D)
  pIC50: 3.75
[2]; [3]
  pIC50: 9.70

## CC1(C)C(N)=N[C@](C)(c2cc(Nc3cc(Cl)cc4cc(Cl)cnc34)ccc2F)CS1(=O)=O [Example 446, N-(3-((3R)-5-amino-3,6,6-trimethyl-1,1-dioxido-3,6-dihydro-2H-1,4-thiazin-3-yl)-4-fluorophenyl)-3,6-dichloro-8-quinolinamine]
[1]; average IC50, enzyme assay
  pIC50: 8.66
Cathepsin D (Cat D)
  pIC50: 4.86
[2]; [3]
  pIC50: 6.58

## COc1cnc2c(Nc3ccc(F)c([C@]4(CF)CS(=O)(=O)C(C)(C)C(N)=N4)c3)nccc2n1 [Example 447, N-(3-((3S)-5-amino-3-(fluoromethyl)-6,6-dimethyl-1,1-dioxido-3,6-dihydro-2H-1,4-thiazin-3-yl)-4-fluorophenyl)-2-methoxypyrido[3,4-b]pyrazin-5-amine]
[1]; average IC50, enzyme assay
  pIC50: 9.06
Cathepsin D (Cat D)
  pIC50: 2.95
[2]; [3]
  pIC50: 7.85

## CC1(C)C(N)=N[C@](CF)(c2cc(Nc3nccc4cc(Cl)cnc34)ccc2F)CS1(=O)=O [Example 448, N-(3-((3S)-5-amino-3-(fluoromethyl)-6,6-dimethyl-1,1-dioxido-3,6-dihydro-2H-1,4-thiazin-3-yl)-4-fluorophenyl)-3-chloro-1,7-naphthyridin-8-amine]
[1]; average IC50, enzyme assay
  pIC50: 9.43
Cathepsin D (Cat D)
  pIC50: 4.23
[2]; [3]
  pIC50: 7.55

## CC1(C)C(N)=N[C@](CF)(c2cc(Nc3nncc4cc(Br)ccc34)ccc2F)CS1(=O)=O [Example 449, N-(3-((3S)-5-amino-3-(fluoromethyl)-6,6-dimethyl-1,1-dioxido-3,6-dihydro-2H-1,4-thiazin-3-yl)-4-fluorophenyl)-6-bromo-1-phthalazinamine]
[1]; average IC50, enzyme assay
  pIC50: 7.52
Cathepsin D (Cat D)
  pIC50: 3.43
[2]; [3]
  pIC50: 6.80

## CC1(C)C(N)=N[C@](C)(c2cc(Nc3nncc4cc(Br)cnc34)ccc2F)CS1(=O)=O [Example 451, N-(3-((3R)-5-amino-3,6,6-trimethyl-1,1-dioxido-3,6-dihydro-2H-1,4-thiazin-3-yl)-4-fluorophenyl)-3-bromopyrido[2,3-d]pyridazin-8-amine]
[1]; average IC50, enzyme assay
  pIC50: 9.17
Cathepsin D (Cat D)
  pIC50: 3.98
[2]; [3]
  pIC50: 9.22

## CC1(C)C(N)=N[C@](C)(c2cc(NC(=O)c3ccc(Cl)cn3)c[nH]c2=O)CS1(=O)=O [Example 452, N-(5-((3R)-5-amino-3,6,6-trimethyl-1,1-dioxido-3,6-dihydro-2H-1,4-thiazin-3-yl)-6-oxo-1,6-dihydro-3-pyridinyl)-5-chloro-2-pyridinecarboxamide]
[1]; average IC50, enzyme assay
  pIC50: 8.15
Cathepsin D (Cat D)
  pIC50: 2.73
[2]; [3]
  pIC50: 7.80

## Cc1cc(OC(F)F)cnc1C(=O)Nc1cnc(F)c([C@]2(C)CS(=O)(=O)C3(CC3)C(N)=N2)c1 [Example 454, N-(5-((6R)-8-amino-6-methyl-4,4-dioxido-4-thia-7-azaspiro[2.5]oct-7-en-6-yl)-6-fluoro-3-pyridinyl)-5-(difluoromethoxy)-3-methyl-2-pyridinecarboxamide]
[1]; average IC50
  pIC50: 8.51
Cathepsin D (Cat D)
  pIC50: 3.97
[2]; [4]
  pIC50: 8.41

## C[C@@]1(c2cc(Br)cnc2F)CS(=O)(=O)C2(CC2)C(N)=N1 [Example 455, (6R)-6-(5-bromo-2-fluoro-3-pyridinyl)-6-methyl-4-thia-7-azaspiro[2.5]oct-7-en-8-amine 4,4-dioxide]
[1]; average IC50
  pIC50: 4.90
Cathepsin D (Cat D)
  pIC50: 4.00
[2]; [4]
  pIC50: < 4.81

## CC1(C)C(N)=N[C@](CF)(c2cc(N)ccc2F)CS1(=O)=O [Example 456, (5S)-5-(5-amino-2-fluorophenyl)-5-(fluoromethyl)-2,2-dimethyl-5,6-dihydro-2H-1,4-thiazin-3-amine 1,1-dioxide]
[1]; average IC50
  pIC50: 5.60
Cathepsin D (Cat D)
  pIC50: 3.64
[2]; [4]
  pIC50: < 4.81

## COc1ccc(C(=O)Nc2ccc(F)c([C@]3(CF)CS(=O)(=O)C(C)(C)C(N)=N3)c2)nc1 [Example 457, N-(3-((3S)-5-amino-3-(fluoromethyl)-6,6-dimethyl-1,1-dioxido-3,6-dihydro-2H-1,4-thiazin-3-yl)-4-fluorophenyl)-5-methoxy-2-pyridinecarboxamide]
[1]; average IC50
  pIC50: 9.19
Cathepsin D (Cat D)
  pIC50: 3.09
[2]; [4]
  pIC50: 7.89

## COCc1cc(Cl)cnc1C(=O)Nc1ccc(F)c([C@]2(CF)CS(=O)(=O)C(C)(C)C(N)=N2)c1 [Example 458, N-(3-((3S)-5-amino-3-(fluoromethyl)-6,6-dimethyl-1,1-dioxido-3,6-dihydro-2H-1,4-thiazin-3-yl)-4-fluorophenyl)-5-chloro-3-(methoxymethyl)-2-pyridinecarboxamide]
[1]; average IC50
  pIC50: 9.05
Cathepsin D (Cat D)
  pIC50: 3.30
[2]; [4]
  pIC50: 7.62

## CC1[C@@](C)(c2cc(Br)ccc2F)N=C(N)[C@](C)(F)S1(=O)=O (stereo partly drawn) [Example 459, (2R,5R)-5-(5-bromo-2-fluorophenyl)-2-fluoro-2,5,6-trimethyl-5,6-dihydro-2H-1,4-thiazin-3-amine 1,1-dioxide]
[1]; average IC50
  pIC50: 5.64
Cathepsin D (Cat D)
  pIC50: < 3.40
[2]; [4]
  pIC50: 5.26

## N-(3-((4aR,7aR)-3-amino-2,2-dimethyl-1,1-dioxido-7,7a-dihydro-2H-furo[3,4-b][1,4]thiazin-4a(5H)-yl)-4-fluorophenyl)-5-(difluoromethoxy)-3-methyl-2-pyridinecarboxamide, N-(3-((4aS,7aS)-3-amino-2,2-dimethyl-1,1-dioxido-7,7a-dihydro-2H-furo[3,4-b][1,4]thiazin-4a(5H)-yl)-4-fluorophenyl)-5-(difluoromethoxy)-3-methyl-2-pyridinecarboxamide [Example 413]
[1]
  pIC50: 8.58
Cathepsin D (Cat D)
  pIC50: 3.95
[2]
  pIC50: 7.99

## N-(3-((4aR,7aS)-3-amino-2,2-dimethyl-1,1-dioxido-7,7a-dihydro-2H-furo[3,4-b][1,4]thiazin-4a(5H)-yl)-4-fluorophenyl)-3-chloro-1,7-naphthyridin-8-amine, N-(3-((4aS,7aR)-3-amino-2,2-dimethyl-1,1-dioxido-7,7a-dihydro-2H-furo[3,4-b][1,4]thiazin-4a(5H)-yl)-4-fluorophenyl)-3-chloro-1,7-naphthyridin-8-amine [Example 429]
[1]; average IC50, enzyme assay
  pIC50: 8.34
Cathepsin D (Cat D)
  pIC50: 3.88
[2]; average IC50, cell assay
  pIC50: 6.80

## N-(3-((4aR,7aS)-3-amino-2,2-dimethyl-1,1-dioxido-7,7a-dihydro-2H-furo[3,4-b][1,4]thiazin-4a(5H)-yl)-4-fluorophenyl)-5-chloro-2-pyridinecarboxamide, N-(3-((4aS,7aR)-3-amino-2,2-dimethyl-1,1-dioxido-7,7a-dihydro-2H-furo[3,4-b][1,4]thiazin-4a(5H)-yl)-4-fluorophenyl)-5-chloro-2-pyridinecarboxamide [Example 426]
[1]; average IC50, enzyme assay
  pIC50: 8.82
Cathepsin D (Cat D)
  pIC50: 3.77
[2]; average IC50, cell assay
  pIC50: 7.87
